Results from paper PMC6572064, “Discovery of 2-(1-(3-(4-Chloroxyphenyl)-3-oxo- propyl)pyrrolidine-3-yl)-1H-benzo[d]imidazole-4-carboxamide: A Potent Poly(ADP-ribose) Polymerase (PARP) Inhibitor for Treatment of Cancer” (Molecules, 2019).
Read-outs that look alike come from different tables or passages of the source.

Tests used:
[1] = target: T1, PARP-1 (Homo sapiens, UniProt P09874); test: PARP-1 inhibition assay (PARP-1 Chemiluminescent Assay Kit, BPS Bioscience); format: biochemical; conditions: 10 nM compound
T1 construct: purchased BPS Bioscience 80569
Experimental: (§1) The PARP-1 and PARP-2 inhibition assays were performed in outsourcing, by a CRO company, Shanghai Medicilon Inc. (Shanghai, China). […] Briefly, PARP-1 or PARP-2 biotinylated substrate was incubated with compounds or solvent control at varying concentrations and an assay buffer containing the PARP-1 or PARP-2 enzyme.

[2] = target: T2, PARP-2 (Homo sapiens, UniProt Q9UGN5); test: PARP-2 inhibition assay (PARP-2 Chemiluminescent Assay Kit, BPS Bioscience); format: biochemical; conditions: 10 nM compound
T2 construct: purchased BPS Bioscience 80552
Experimental: as §1

[3] = system: MDA-MB-436 (a BRCA-1-mutated breast cancer cell line); test: Cell proliferation assay, three-day, CellTiter-Glo, MDA-MB-436; format: cell-based; conditions: Homo sapiens; for inhibition at 0.00508 µM: MDA-MB-436, MDA-MB-436, Conc. 0.00508 uM; for inhibition at 0.0152 µM: MDA-MB-436, MDA-MB-436, Conc. 0.0152 uM; for inhibition at 0.0457 µM: MDA-MB-436, MDA-MB-436, Conc. 0.0457 uM; for inhibition at 0.41 µM: MDA-MB-436, MDA-MB-436, Conc. 0.41 uM; for inhibition at 1.23 µM: MDA-MB-436, MDA-MB-436, Conc. 1.23 uM; for inhibition at 3.7 µM: MDA-MB-436, MDA-MB-436, Conc. 3.70 uM; for inhibition at 11.11 µM: MDA-MB-436, MDA-MB-436, Conc. 11.11 uM; for inhibition at 33.33 µM: MDA-MB-436, MDA-MB-436, Conc. 33.33 uM; for inhibition at 100 µM: MDA-MB-436, MDA-MB-436, Conc. 100.00 uM
How it was run: (§2)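 Luminescent ATP read-out (CellTiter-Glo, 60 min at room temperature) quantified viability after a 72 h compound exposure at 37 °C, 5% CO2. Compounds, diluted from DMSO stocks into growth medium, were added to cells plated the previous day.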

[4] = system: CAPAN-1 (a BRCA-2-mutated pancreatic cancer cell line); test: Cell proliferation assay, three-day, CellTiter-Glo, CAPAN-1; format: cell-based; conditions: Homo sapiens; for inhibition at 0.00508 µM: CAPAN-1, Conc. 0.00508 uM; for inhibition at 0.0152 µM: CAPAN-1, Conc. 0.0152 uM; for inhibition at 0.0457 µM: CAPAN-1, Conc. 0.0457 uM; for inhibition at […]: CAPAN-1, Conc. 0.14 uM; for inhibition at 0.41 µM: CAPAN-1, Conc. 0.41 uM; for inhibition at 1.23 µM: CAPAN-1, Conc. 1.23 uM; for inhibition at 3.7 µM: CAPAN-1, Conc. 3.70 uM; for inhibition at 11.11 µM: CAPAN-1, Conc. 11.11 uM; for inhibition at 33.33 µM: CAPAN-1, Conc. 33.33 uM; for inhibition at 100 µM: CAPAN-1, Conc. 100.00 uM
How it was run: as §2

T1 sequence (P09874 whole entry): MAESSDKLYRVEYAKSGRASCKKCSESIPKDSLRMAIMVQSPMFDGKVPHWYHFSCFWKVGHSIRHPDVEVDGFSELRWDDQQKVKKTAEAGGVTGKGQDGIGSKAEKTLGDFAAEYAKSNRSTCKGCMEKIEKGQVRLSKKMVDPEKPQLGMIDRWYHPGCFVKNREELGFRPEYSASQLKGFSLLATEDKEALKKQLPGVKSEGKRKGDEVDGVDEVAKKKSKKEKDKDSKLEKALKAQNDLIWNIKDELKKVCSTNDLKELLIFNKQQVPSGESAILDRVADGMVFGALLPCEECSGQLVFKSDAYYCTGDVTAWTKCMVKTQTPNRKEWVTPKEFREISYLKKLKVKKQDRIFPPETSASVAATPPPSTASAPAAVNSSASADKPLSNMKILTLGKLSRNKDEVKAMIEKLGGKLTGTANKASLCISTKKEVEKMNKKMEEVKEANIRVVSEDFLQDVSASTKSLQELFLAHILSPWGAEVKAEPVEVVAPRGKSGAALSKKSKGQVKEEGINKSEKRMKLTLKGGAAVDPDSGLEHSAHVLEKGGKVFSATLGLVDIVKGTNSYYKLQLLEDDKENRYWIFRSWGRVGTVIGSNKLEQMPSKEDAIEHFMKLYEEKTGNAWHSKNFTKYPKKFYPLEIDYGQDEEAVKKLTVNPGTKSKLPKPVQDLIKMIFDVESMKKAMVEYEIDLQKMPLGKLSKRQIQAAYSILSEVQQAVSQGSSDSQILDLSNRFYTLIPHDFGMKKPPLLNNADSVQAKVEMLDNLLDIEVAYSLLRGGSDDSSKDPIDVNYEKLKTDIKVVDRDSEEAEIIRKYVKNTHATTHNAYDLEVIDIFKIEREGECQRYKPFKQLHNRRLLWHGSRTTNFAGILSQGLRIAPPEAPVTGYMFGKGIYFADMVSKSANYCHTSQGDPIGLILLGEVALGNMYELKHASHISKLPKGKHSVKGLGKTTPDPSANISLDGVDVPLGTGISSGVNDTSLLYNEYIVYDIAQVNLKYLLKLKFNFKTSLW
T2 sequence (Q9UGN5 whole entry): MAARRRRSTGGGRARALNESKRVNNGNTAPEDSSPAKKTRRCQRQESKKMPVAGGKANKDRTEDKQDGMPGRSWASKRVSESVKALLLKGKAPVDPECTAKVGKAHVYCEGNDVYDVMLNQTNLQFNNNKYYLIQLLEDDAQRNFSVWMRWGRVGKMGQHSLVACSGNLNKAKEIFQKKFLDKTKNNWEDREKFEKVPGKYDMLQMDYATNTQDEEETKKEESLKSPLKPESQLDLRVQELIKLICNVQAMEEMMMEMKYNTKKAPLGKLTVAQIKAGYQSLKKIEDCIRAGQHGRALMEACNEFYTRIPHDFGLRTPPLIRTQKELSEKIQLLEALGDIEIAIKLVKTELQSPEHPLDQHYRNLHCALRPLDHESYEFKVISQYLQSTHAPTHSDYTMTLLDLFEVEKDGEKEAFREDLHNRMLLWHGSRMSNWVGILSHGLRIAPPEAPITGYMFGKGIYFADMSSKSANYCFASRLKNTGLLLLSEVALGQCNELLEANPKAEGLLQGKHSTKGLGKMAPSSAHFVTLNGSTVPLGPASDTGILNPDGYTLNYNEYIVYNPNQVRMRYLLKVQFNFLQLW

inhibition at 0.01 µM ([1]; supplement sheet, read-out: 10 nM inhibition% PAPR-1): 26.8% | inhibition at 0.01 µM ([1]; read-out: PARP-1 Inhibition % (10 nM)): 26.8% | inhibition at 0.01 µM ([2]; supplement sheet, read-out: 10 nM inhibition% PAPR-2): 46.4% | inhibition at 0.01 µM ([2]; read-out: PARP-2 Inhibition % (10 nM)): 46.4% | IC50 ([3]; MDA-MB-436, 72 h, CellTiter-Glo, read-out: MDA-MB-436 IC50): > 100 µM | IC50 ([4]; CAPAN-1, 72 h, CellTiter-Glo, read-out: CAPAN-1 IC50): > 100 µM
SMILES: NCCCN1CCC(c2nc3c(C(N)=O)cccc3[nH]2)C1 (centres unmarked) [Compound 5cl, 2-(1-(3-Aminopropyl)pyrrolidin-3-yl)-1H-benzo[d]imidazole-4-carboxamide]
inhibition at 0.00508 µM ([3]; replicate 1, read-out: Inh % 1): 4.5% | inhibition at 0.00508 µM ([3]; replicate 2, read-out: Inh % 2): -3.7% | inhibition at 0.0152 µM ([3]; replicate 1, read-out: Inh % 1): 0.4% | inhibition at 0.0152 µM ([3]; replicate 2, read-out: Inh % 2): -4.9% | inhibition at 0.0457 µM ([3]; replicate 1, read-out: Inh % 1): -13.5% | inhibition at 0.0457 µM ([3]; replicate 2, read-out: Inh % 2): -10.1% | inhibition at 0.41 µM ([3]; replicate 1, read-out: Inh % 1): -7.3% | inhibition at 0.41 µM ([3]; replicate 2, read-out: Inh % 2): -7.6% | inhibition at 1.23 µM ([3]; replicate 1, read-out: Inh % 1): -9% | inhibition at 1.23 µM ([3]; replicate 2, read-out: Inh % 2): -8.7% | inhibition at 3.7 µM ([3]; replicate 1, read-out: Inh % 1): -7.4% | inhibition at 3.7 µM ([3]; replicate 2, read-out: Inh % 2): -9.8% | inhibition at 11.11 µM ([3]; replicate 1, read-out: Inh % 1): -5.4% | inhibition at 11.11 µM ([3]; replicate 2, read-out: Inh % 2): -5.2% | inhibition at 33.33 µM ([3]; replicate 1, read-out: Inh % 1): 1.9% | inhibition at 33.33 µM ([3]; replicate 2, read-out: Inh % 2): -7% | inhibition at 100 µM ([3]; replicate 1, read-out: Inh % 1): 7.4% | inhibition at 100 µM ([3]; replicate 2, read-out: Inh % 2): 2.1% | inhibition at 0.00508 µM ([4]; replicate 1, read-out: Inh % 1): 0.0228% | inhibition at 0.00508 µM ([4]; replicate 2, read-out: Inh % 2): -3.6% | inhibition at 0.0152 µM ([4]; replicate 1, read-out: Inh % 1): -3.3% | inhibition at 0.0152 µM ([4]; replicate 2, read-out: Inh % 2): -4.8% | inhibition at 0.0457 µM ([4]; replicate 1, read-out: Inh % 1): 0.238% | inhibition at 0.0457 µM ([4]; replicate 2, read-out: Inh % 2): -10.3% | inhibition at […] ([4]; replicate 1, read-out: Inh % 1): 4.7% | inhibition at […] ([4]; replicate 2, read-out: Inh % 2): -9.8% | inhibition at 0.41 µM ([4]; replicate 1, read-out: Inh % 1): 1.3% | inhibition at 0.41 µM ([4]; replicate 2, read-out: Inh % 2): 5.2% | inhibition at 1.23 µM ([4]; replicate 1, read-out: Inh % 1): -5.5% | inhibition at 1.23 µM ([4]; replicate 2, read-out: Inh % 2): 3.8% | inhibition at 3.7 µM ([4]; replicate 1, read-out: Inh % 1): 4.6% | inhibition at 3.7 µM ([4]; replicate 2, read-out: Inh % 2): -3% | inhibition at 11.11 µM ([4]; replicate 1, read-out: Inh % 1): -2.8% | inhibition at 11.11 µM ([4]; replicate 2, read-out: Inh % 2): -3.6% | inhibition at 33.33 µM ([4]; replicate 1, read-out: Inh % 1): -7.9% | inhibition at 33.33 µM ([4]; replicate 2, read-out: Inh % 2): -7.8% | inhibition at 100 µM ([4]; replicate 1, read-out: Inh % 1): -10.8% | inhibition at 100 µM ([4]; replicate 2, read-out: Inh % 2): -6.6%
